Earlier results, collected in patent US10842782B2, “Storage stable composition comprising rifaximin alpha” (Sandoz AG, priority 2016, dated 2020).

Conditions: single 400 mg dose

Row | AUC [ng·h/mL] | Cmax [ng/mL] | Compound
1 | 17 | 2.6 | CO[C@H]1/C=C/O[C@@]2(C)Oc3c(C)c(O)c4c(O)c(c5c(nc6cc(C)ccn65)c4c3C2=O)NC(=O)/C(C)=C\C=C\[C@H](C)[C@H](O)[C@@H](C)[C@@H](O)[C@@H](C)[C@H](OC(C)=O)[C@@H]1C [Alpha, (2S,16Z,18E,20S,21S,22R,23R,24R,25S,26S,27S,28E)-5,6,21,23,25-pentahydroxy-27-methoxy-2,4,11,16,20,22,24,26-octamethyl-2,7-(epoxypentadeca[1,11,13]trienimino) benzofuro[4,5-e]pyrido[1,2-a]-benzimidazole-1,15(2H)-dione,25-acetate]
2 | 830 | 308.3 | CO[C@H]1/C=C/O[C@@]2(C)Oc3c(C)c(O)c4c(O)c(c5c(nc6cc(C)ccn65)c4c3C2=O)NC(=O)/C(C)=C\C=C\[C@H](C)[C@H](O)[C@@H](C)[C@@H](O)[C@@H](C)[C@H](OC(C)=O)[C@@H]1C [Delta, (2S,16Z,18E,20S,21S,22R,23R,24R,25S,26S,27S,28E)-5,6,21,23,25-pentahydroxy-27-methoxy-2,4,11,16,20,22,24,26-octamethyl-2,7-(epoxypentadeca[1,11,13]trienimino) benzofuro[4,5-e]pyrido[1,2-a]-benzimidazole-1,15(2H)-dione,25-acetate]
